In assay [1] the target is T1, EGFR (Homo sapiens, UniProt P00533). As to the kind of experiment: Binding constant (Kd) measurement, T7 phage-displayed kinase competition binding, wildtype EGFR. Details: made in house. Particulars: read-out: Kd for EGFR (DKIN) Binding. The source says: Methods for measuring binding affinities for interactions between small molecules and kinases including FLT3, c-KIT, ABL(T334I) [a.k.a. […] The components of the assays include human kinases expressed as fusions to T7 bacteriophage particles and immobilized ligands that bind to the ATP site of the kinases. […] If the test compound binds the kinase it competes with the immobilized ligand and prevents binding to the solid support. […] The results are read out by quantitating the amount of fusion protein bound to the solid support, which is accomplished by either traditional phage plaque assays or by quantitative PCR (qPCR) using the phage genome as a template.
The term “ND” represents non-determined values.
To measure the Kd values, the T7 phage displaying human EGFR were incubated with an […] affinity matrix in the presence of various concentrations of a soluble (non-immobilized) compounds provided herein, as described in detail herein.

Assay [2] has as its target T1, EGFR. Briefly: EGFR autophosphorylation (tyrosine 1173) inhibition assay in A431 cells. The class given is cell-based. Details: 4×10^4 A431 cells/well in a 96-well culture plate; endogenous in cells; host or cells: A431. The conditions noted are these: Epidermoid Carcinoma Cell Line A431; EGF-induced phosphorylation of tyrosine 1173. The method, then:
(§1) Cells were stimulated by the addition of 5 ng/ml of EGF for five minutes. Cells were then washed with cold phosphate buffered saline (PBS), and incubated for 30 minutes at 4° C. in lysis buffer. […] Total EGFR levels were also measured in the same manner to control for protein level differences.

Assay [3] concerns the target T1, EGFR. As to the kind of experiment: EGFR autophosphorylation (tyrosine 1173) inhibition assay in lung cancer cell line A459. The class given is cell-based. Details: 3.6×10^5 A549 cells/well in a 24-well culture plate; endogenous in cells. The conditions noted are these: EGF-induced phosphorylation of tyrosine 1173. The method, then:
as §1

Some results are limits rather than exact numbers.

T1 sequence (P00533 25-1210): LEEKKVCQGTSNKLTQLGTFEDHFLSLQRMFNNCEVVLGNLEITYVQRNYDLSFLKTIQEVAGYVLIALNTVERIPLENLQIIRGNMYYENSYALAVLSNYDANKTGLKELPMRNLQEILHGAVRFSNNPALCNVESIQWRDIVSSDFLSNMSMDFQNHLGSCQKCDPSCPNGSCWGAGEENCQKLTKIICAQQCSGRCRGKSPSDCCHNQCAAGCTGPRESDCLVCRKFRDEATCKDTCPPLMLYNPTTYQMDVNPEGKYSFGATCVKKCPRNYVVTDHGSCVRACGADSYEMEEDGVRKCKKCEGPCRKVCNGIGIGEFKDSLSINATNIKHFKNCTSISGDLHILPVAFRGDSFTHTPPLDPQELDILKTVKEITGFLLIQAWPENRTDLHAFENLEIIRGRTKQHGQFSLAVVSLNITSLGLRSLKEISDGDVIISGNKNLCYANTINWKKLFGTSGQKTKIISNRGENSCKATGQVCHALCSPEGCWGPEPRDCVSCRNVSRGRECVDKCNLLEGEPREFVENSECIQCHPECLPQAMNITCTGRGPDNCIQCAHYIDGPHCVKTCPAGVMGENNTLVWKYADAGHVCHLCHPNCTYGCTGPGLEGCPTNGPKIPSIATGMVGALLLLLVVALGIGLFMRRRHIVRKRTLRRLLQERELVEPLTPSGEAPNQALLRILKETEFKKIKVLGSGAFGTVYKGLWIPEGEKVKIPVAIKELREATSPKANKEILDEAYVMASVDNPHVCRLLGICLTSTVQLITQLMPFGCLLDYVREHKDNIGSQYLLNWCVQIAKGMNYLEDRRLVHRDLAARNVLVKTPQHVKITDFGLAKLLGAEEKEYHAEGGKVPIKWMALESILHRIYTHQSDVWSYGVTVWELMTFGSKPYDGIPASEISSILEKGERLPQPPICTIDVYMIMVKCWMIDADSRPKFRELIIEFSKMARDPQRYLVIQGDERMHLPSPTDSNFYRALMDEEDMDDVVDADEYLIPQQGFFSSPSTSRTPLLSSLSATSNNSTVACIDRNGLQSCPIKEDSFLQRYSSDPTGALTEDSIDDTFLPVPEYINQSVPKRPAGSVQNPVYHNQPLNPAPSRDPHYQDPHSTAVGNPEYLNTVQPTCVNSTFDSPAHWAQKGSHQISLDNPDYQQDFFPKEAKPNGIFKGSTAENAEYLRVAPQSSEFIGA

Turning to `COc1ccc(Cn2c(-c3ccc(OC)cc3)cc3c(Nc4cccc(O)c4)ncnc32)cc1` [Compound K7], the Kd on EGFR [1] is 1000 to 10000 nM.
For the molecule `Oc1ccc(-c2cc3c(Nc4cccc(O)c4)ncnc3[nH]2)cc1` [Compound S33], the Kd at EGFR [1] was below 100 nM.
`Oc1ccc(-c2cc3c(Nc4ccc(F)cc4)ncnc3[nH]2)cc1` [Compound S37]: at EGFR [1], the Kd was below 100 nM.
As to `COC(=O)c1cccc(Nc2ncnc3[nH]c(-c4ccc(O)cc4)cc23)c1` [Compound S32], the Kd on EGFR [1] was in the range of 100 to 1000 nM.
The same measure, in the same setting: under `O=C(O)c1cccc(Nc2ncnc3[nH]c(-c4ccc(O)cc4)cc23)c1` [Compound S31] stands 1000 to 10000 nM; under `COc1cccc(CNc2ncnc3nc[nH]c23)c1` [Compound G15], above 10000 nM.
Take `COc1ccc(C(C)Nc2ncnc3[nH]c(-c4cccc(OC)c4)cc23)cc1` (centres unmarked) [Compound I17]: the dissociation constant Kd at EGFR [1] is 1000 to 10000 nM.
For the molecule `COc1cccc(Nc2ncnc3[nH]c(-c4cccc(OC)c4)cc23)c1` [Compound S21], the Kd on EGFR [1] is below 100 nM.
Still for that read-out and setting: under `COc1cccc(-c2cc3c(Nc4ccccc4)ncnc3[nH]2)c1` [Compound S27] stands below 100 nM.
Regarding `COc1ccc(-c2cc3c(Nc4ccc(Cl)c(C(F)(F)F)c4)ncnc3[nH]2)cc1` [Compound S8], on EGFR [1], the Kd is below 100 nM.
On to `COc1ccc(-c2cc3c(N[C@@H](C)c4ccccc4)ncnc3n2C)cc1` [Compound D9], for which the Kd on EGFR [1] is above 10000 nM.
With `COc1cccc(-c2cc3c(Nc4cc(C)cc(C)c4)ncnc3[nH]2)c1` [Compound S13], the Kd at EGFR [1] is below 100 nM.
Same read-out and setting: as for `COc1ccc(-c2cc3c(Nc4cc(Cl)cc(Cl)c4)ncnc3[nH]2)cc1` [Compound S2], the figure is 100 to 1000 nM; as for `COc1ccc(Cn2c(-c3ccc(OC)cc3)cc3c(Nc4cccc(F)c4)ncnc32)cc1` [Compound K8], 1000 to 10000 nM; as for `COc1ccc(-c2cc3c(Nc4cccc(C(F)(F)F)c4)ncnc3[nH]2)cc1` [Compound I5], below 100 nM.
Same read-out and setting: under `COc1cccc(Nc2ncnc3[nH]c(-c4ccc(Br)cc4)cc23)c1` [Compound S42] stands 100 to 1000 nM; under `COc1ccc(-c2cc3c(Nc4cccc(C(=O)O)c4)ncnc3[nH]2)cc1` [Compound S3], below 100 nM; under `COc1cccc(Nc2ncnc3[nH]c(-c4ccc(O)cc4)cc23)c1` [Compound S36], below 100 nM.
For `COc1ccc(-c2cc3c(Nc4cccc(C)c4)ncnc3[nH]2)cc1` [Compound S10], the Kd on EGFR [1] was below 100 nM. The IC50 against EGFR [2] is below 100 nM.
`COc1cccc(-c2cc3c(NCc4cccc(Cl)c4)ncnc3[nH]2)c1` [Compound I11]: the Kd on EGFR [1] was below 100 nM.
Turning to `Cc1cc(C)cc(Nc2ncnc3[nH]c(-c4ccc(Br)cc4)cc23)c1` [Compound S39], at EGFR [1], the Kd lay in the range of 100 to 1000 nM. Besides, on EGFR [2], the IC50 lay within 100 to 1000 nM.
Regarding `COc1ccc(-c2cc3c(NCCc4ccccc4)ncnc3[nH]2)cc1` [Compound I8], the Kd at EGFR [1] was 100 to 1000 nM.
Still for that read-out and setting: under `Oc1ccc(-c2cc3c(NCCc4ccccc4)ncnc3[nH]2)cc1` [Compound I22] stands below 100 nM; under `Oc1ccc(-c2cc3c(NCc4ccccc4)ncnc3[nH]2)cc1` [Compound I21], below 100 nM.
Regarding `C[C@H](Nc1ncnc2c1[nH]c1ccccc12)c1ccccc1` [Compound C2], at EGFR [1], the Kd is below 100 nM. For the same molecule, the results for the IC50 against EGFR [2] and on EGFR [3] were 100 to 1000 nM and 1000 to 10000 nM, respectively.
`C[C@H](Nc1ncnc2[nH]c(-c3ccc(O)cc3)cc12)c1ccccc1` [Compound I9]: the dissociation constant Kd at EGFR [1] was in the range of 1000 to 10000 nM.
Turning to `COc1cccc(-c2cc3c(Nc4ccc(F)cc4)ncnc3[nH]2)c1` [Compound S24], the dissociation constant (Kd) on EGFR [1] is below 100 nM.
Take `COc1ccc(-c2cc3c(N[C@H](C)c4ccccc4)ncnc3[nH]2)cc1` [Compound M21]: the Kd at EGFR [1] is below 100 nM.
Consider `COc1ccc(-c2cc3c(N[C@@H](C)c4ccccc4)ncnc3n2C(C)C)cc1` [Compound D10], for which the Kd on EGFR [1] was below 100 nM. Moreover, the IC50 against EGFR [2] was 100 to 1000 nM; at EGFR [3], below 100 nM.
For `COC(=O)c1cccc(Nc2ncnc3[nH]c(-c4ccc(OC)cc4)cc23)c1` [Compound S4], the dissociation constant (Kd) at EGFR [1] was below 100 nM.
Turning to `COc1ccc(Cn2c(-c3ccc(OC)cc3)cc3c(NCc4cccc(Cl)c4)ncnc32)cc1` [Compound M20], at EGFR [1], the Kd lay within 1000 to 10000 nM.
Still for that read-out and setting: under `Cc1cc(C)cc(Nc2ncnc3[nH]c(-c4ccc(O)cc4)cc23)c1` [Compound S30] stands below 100 nM.
Take `Clc1cccc(Nc2ncnc3[nH]cnc23)c1` [Compound G12]: the Kd on EGFR [1] was above 10000 nM.
Same read-out and setting: under `CC(Nc1ncnc2[nH]c(-c3ccc(O)cc3)cc12)c1ccccc1` (centres unmarked) [Compound I18] stands below 100 nM; under `Clc1ccc(Nc2ncnc3[nH]cnc23)cc1Cl` [Compound G3], 1000 to 10000 nM; under `COc1ccc(C(C)Nc2ncnc3[nH]c(-c4ccc(O)cc4)cc23)cc1` (centres unmarked) [Compound I23], 1000 to 10000 nM.
For `O=C(O)c1cccc(Nc2ncnc3[nH]cnc23)c1` [Compound G6], the dissociation constant (Kd) on EGFR [1] is above 10000 nM.
Consider `C[C@H](Nc1ncnc2[nH]c(-c3ccc(Br)cc3)cc12)c1ccccc1` [Compound I24], for which the Kd at EGFR [1] is below 100 nM.
On the same count and under the same terms, under `COC(=O)C(Nc1ncnc2[nH]c(-c3ccc(OC)cc3)cc12)c1ccccc1` (centres unmarked) [Compound I7] stands 100 to 1000 nM; under `COc1cccc(-c2cc3c(NCc4ccc(Cl)cc4)ncnc3[nH]2)c1` [Compound I16], below 100 nM.
As to `COc1cccc(-c2cc3c(Nc4ccc(Cl)c(Cl)c4)ncnc3[nH]2)c1` [Compound S19], the Kd at EGFR [1] is below 100 nM.
On the same count and under the same terms, as for `COc1ccc(-c2nc3c(NCc4cccc(C)c4)ncnc3[nH]2)cc1` [Compound I4], the figure is 100 to 1000 nM.
For `C[C@@H](Nc1ncnc2oc(-c3ccccc3)c(-c3ccccc3)c12)c1ccccc1` [Compound H1, (5,6-Diphenyl-furo[2,3-d]pyrimidin-4-yl)-(1-phenyl-ethyl)-amine], at EGFR [1], the dissociation constant Kd is below 100 nM. In addition, the IC50 against EGFR [2] is 100 to 1000 nM.
As to `COC(=O)c1cccc(Nc2ncnc3[nH]c(-c4cccc(OC)c4)cc23)c1` [Compound S15], on EGFR [1], the Kd is above 10000 nM.
In the case of `COc1ccc(-c2cc3c(N[C@H](C)c4ccccc4)nc(N[C@@H](C)c4ccccc4)nc3[nH]2)cc1` [Compound M22], the Kd on EGFR [1] is below 100 nM.
Still for that read-out and setting: under `COc1cccc(-c2cc3c(Nc4ccc(Cl)cc4)ncnc3[nH]2)c1` [Compound S23] stands below 100 nM.
In the case of `CC(Nc1ncnc2oc(-c3ccccc3)c(-c3ccccc3)c12)c1ccccc1` (centres unmarked) [Compound H3], on EGFR [1], the Kd was below 100 nM. The molecule also showed an IC50 on EGFR [2] of 100 to 1000 nM.
With `COc1ccc(-c2cc3c(NC(C)c4ccccc4)ncnc3[nH]2)cc1` (centres unmarked) [Compound M24], the Kd on EGFR [1] fell in the range of 100 to 1000 nM.
Take `Fc1ccc(Nc2ncnc3c2[nH]c2ccccc23)cc1Cl` [Compound C14]: the Kd at EGFR [1] was in the range of 100 to 1000 nM.
Same read-out and setting: as for `COc1cccc(-c2cc3c(NCc4cccc(C)c4)ncnc3[nH]2)c1` [Compound I12], the figure is 100 to 1000 nM; as for `COc1cccc(-c2cc3c(Nc4cccc(F)c4)ncnc3[nH]2)c1` [Compound S22], below 100 nM; as for `Cn1c(-c2ccc(O)cc2)cc2c(Nc3cccc(Br)c3)ncnc21` [Compound Q7], 1000 to 10000 nM.
Same read-out and setting: under `COc1cccc(-c2cc3c(Nc4cccc(O)c4)ncnc3[nH]2)c1` [Compound S16] stands below 100 nM.
On the same count and under the same terms, as for `Clc1cc(Cl)cc(Nc2ncnc3[nH]c(-c4ccc(Br)cc4)cc23)c1` [Compound S38], the figure is 1000 to 10000 nM; as for `COc1cccc(-c2cc3c(NCc4ccccc4)ncnc3[nH]2)c1` [Compound I14], below 100 nM.
`Oc1ccc(-c2cc3c(Nc4cccc(F)c4)ncnc3[nH]2)cc1` [Compound S35]: the Kd at EGFR [1] was below 100 nM.
As to `Cc1cccc(CNc2ncnc3[nH]c(-c4ccc(O)cc4)cc23)c1` [Compound I20], at EGFR [1], the Kd is below 100 nM.
On the same count and under the same terms, as for `COc1cccc(CNc2ncnc3[nH]c(-c4ccc(O)cc4)cc23)c1` [Compound I19], the figure is 100 to 1000 nM; as for `COc1cccc(-c2cc3c(Nc4ccc(C)cc4)ncnc3[nH]2)c1` [Compound S28], below 100 nM; as for `COc1ccc(Cn2c(-c3ccc(OC)cc3)cc3c(Nc4cc(C)cc(C)c4)ncnc32)cc1` [Compound K6], 1000 to 10000 nM.

The record behind these values is US20050153989A1, “Pyrrolopyrimidine derivatives and analogs and their use in the treatment and prevention of diseases” (Ambit Biosciences Corporation, priority 2004, published 2005).
